Test results: patent US9283222B2 (priority 2006, dated 2016)

Biological target: Recombinant Human Poly(ADP-Ribose) Polymerase (PARP), PARP-1 (Homo sapiens (Human), UniProt P09874)
Conditions: read-out: PARP-1 (Ki); Table 1; text calls the values EC50s
Method: Nicotinamide[2,5′,8-3H]adenine dinucleotide and strepavidin SPA beads were purchased from Amersham Biosiences. […] NAD^+, histone, aminobenzamide, 3-amino benzamide and Calf Thymus DNA (dcDNA) were purchased from Sigma. Stem loop oligonucleotide containing MCAT sequence was obtained from Qiagen. The oligos were dissolved to 1 mM in annealing buffer containing 10 mM Tris HCl pH 7.5, 1 mM EDTA, and 50 mM NaCl, incubated for 5 minutes at 95° C., and annealed at 45° C. for 45 minutes. […] Biotinylated histone H1 was prepared by treating the protein with Sulfo-NHS-LC-Biotin from Pierce. The biotinylation reaction was conducted by slowly and intermittently adding 3 equivalents of 10 mM Sulfo-NHS-LC-Biotin to 100 μM Histone H1 in phosphate-buffered saline, pH 7.5, at 4° C. with gentle vortexing over 1 minute followed by subsequent 4° C. incubation for 1 hour. Streptavidin coated (FlashPlate Plus) microplates were purchased from Perkin Elmer.
PARP1 assay was conducted in PARP assay buffer containing 50 mM Tris pH 8.0, 1 mM DTT, 4 mM MgCl2. […] Auto reactions utilizing SPA bead-based detection were carried out in 100 μL volumes in white 96 well plates.

Recombinant Human Poly(ADP-Ribose) Polymerase (PARP), PARP-1, sequence (P09874 whole entry): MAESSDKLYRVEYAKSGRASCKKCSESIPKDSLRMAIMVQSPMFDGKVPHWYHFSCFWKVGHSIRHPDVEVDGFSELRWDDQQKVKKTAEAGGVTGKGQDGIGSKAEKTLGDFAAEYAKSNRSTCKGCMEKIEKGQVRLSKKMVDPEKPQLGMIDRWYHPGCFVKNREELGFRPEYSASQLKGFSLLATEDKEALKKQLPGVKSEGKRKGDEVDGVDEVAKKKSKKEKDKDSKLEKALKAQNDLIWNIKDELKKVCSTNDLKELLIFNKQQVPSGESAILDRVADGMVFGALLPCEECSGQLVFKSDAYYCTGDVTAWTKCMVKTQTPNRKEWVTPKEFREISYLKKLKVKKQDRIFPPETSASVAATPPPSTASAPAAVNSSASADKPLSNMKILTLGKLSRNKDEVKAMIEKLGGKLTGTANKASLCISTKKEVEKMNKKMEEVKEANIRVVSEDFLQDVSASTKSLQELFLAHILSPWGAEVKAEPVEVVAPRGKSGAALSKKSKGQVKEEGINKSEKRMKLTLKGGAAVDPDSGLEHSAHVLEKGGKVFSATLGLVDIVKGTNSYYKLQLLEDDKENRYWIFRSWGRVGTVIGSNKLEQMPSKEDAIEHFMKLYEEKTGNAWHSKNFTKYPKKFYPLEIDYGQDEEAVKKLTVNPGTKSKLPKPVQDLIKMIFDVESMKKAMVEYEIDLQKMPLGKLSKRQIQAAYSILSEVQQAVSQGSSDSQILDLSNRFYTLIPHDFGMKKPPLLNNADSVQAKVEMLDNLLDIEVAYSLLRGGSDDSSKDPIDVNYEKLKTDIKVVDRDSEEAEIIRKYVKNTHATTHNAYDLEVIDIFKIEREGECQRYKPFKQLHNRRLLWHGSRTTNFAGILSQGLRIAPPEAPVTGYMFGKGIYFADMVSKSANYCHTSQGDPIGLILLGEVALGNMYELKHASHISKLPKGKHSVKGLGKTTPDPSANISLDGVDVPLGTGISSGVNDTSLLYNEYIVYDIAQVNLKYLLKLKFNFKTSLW

Ki | Compound
1.1 nM | O=C(c1cnc(Cl)c(O)c1)N1CCN(C(=O)c2cc(Cc3n[nH]c(=O)c4c3NCCC4)ccc2F)CC1 [Example 651]
78 nM | O=C(CCc1ccccc1)Nc1cccc(Cc2n[nH]c(=O)c3c2CCCC3)c1 [Example 143, N-(3-((4-oxo-3,4,5,6,7,8-hexahydrophthalazin-1-yl)methyl)phenyl)-3-phenylpropanamide]
99 nM | CCc1cccc(NC(=O)c2cccc(Cc3n[nH]c(=O)c4c3CCCC4)c2)c1 [Example 330, N-(3-ethylphenyl)-3-((4-oxo-3,4,5,6,7,8-hexahydrophthalazin-1-yl)methyl)benzamide]
22 nM | CCOCCC(=O)Nc1cccc(Cc2n[nH]c(=O)c3c2CCCC3)c1 [Example 138, 3-ethoxy-N-(3-((4-oxo-3,4,5,6,7,8-hexahydrophthalazin-1-yl)methyl)phenyl)propanamide]
31 nM | O=C(Nc1cccc(Cc2n[nH]c(=O)c3c2CCCC3)c1)c1cc(C(F)(F)F)ccc1F [Example 191, 2-fluoro-N-(3-((4-oxo-3,4,5,6,7,8-hexahydrophthalazin-1-yl)methyl)phenyl)-5-(trifluoromethyl)benzamide]
25 nM | O=C(NCCCN1CCOCC1)c1cccc(Cc2n[nH]c(=O)c3c2CCCC3)c1 [Example 317, N-(3-morpholin-4-ylpropyl)-3-((4-oxo-3,4,5,6,7,8-hexahydrophthalazin-1-yl)methyl)benzamide]
0.6 nM | Cc1nc2cc(C(=O)N3CCN(C(=O)c4cc(Cc5n[nH]c(=O)c6c5CCCC6)ccc4F)CC3)ccc2[nH]1 [Example 754, 4-[4-fluoro-3-({4-[(2-methyl-1H-benzimidazol-5-yl)carbonyl]piperazin-1-yl}carbonyl)benzyl]-5,6,7,8-tetrahydrophthalazin-1(2H)-one]
134 nM | Cc1ccc(NC(=O)c2cccc(Cc3n[nH]c(=O)c4c3CCCC4)c2)cc1Cl [Example 342, N-(3-chloro-4-methylphenyl)-3-((4-oxo-3,4,5,6,7,8-hexahydrophthalazin-1-yl)methyl)benzamide]
42 nM | Cc1cccc(CCNC(=O)c2cccc(Cc3n[nH]c(=O)c4c3CCCC4)c2)c1 [Example 377, N-(2-(3-methylphenyl)ethyl)-3-((4-oxo-3,4,5,6,7,8-hexahydrophthalazin-1-yl)methyl)benzamide]
1.9 nM | O=C(c1ccc2nc[nH]c2c1)N1CCCN(C(=O)c2cc(Cc3n[nH]c(=O)c4c3NCCC4)ccc2F)CC1 [Example 686, 8-(3-{[4-(1H-benzimidazol-6-ylcarbonyl)-1,4-diazepan-1-yl]carbonyl}-4-fluorobenzyl)-2,3,4,6-tetrahydropyrido[2,3-d]pyridazin-5(1H)-one]
446 nM | O=C(c1ccc(-c2cc(Cc3n[nH]c(=O)c4c3CCCC4)ccc2F)cc1)N1CCCC1 [Example 251, 4-((6-fluoro-4′-(pyrrolidin-1-ylcarbonyl)-1,1′-biphenyl-3-yl)methyl)-5,6,7,8-tetrahydrophthalazin-1(2H)-one]
204 nM | NC(=O)c1cccc(-c2cc(CCc3n[nH]c(=O)c4c3CCCC4)ccc2F)c1 [Example 272, 2′-fluoro-5′-(2-(4-oxo-3,4,5,6,7,8-hexahydrophthalazin-1-yl)ethyl)-1,1′-biphenyl-3-carboxamide]
61 nM | O=C(Nc1cccc(Cc2n[nH]c(=O)c3c2CCCC3)c1)c1ccoc1 [Example 194, N-(3-((4-oxo-3,4,5,6,7,8-hexahydrophthalazin-1-yl)methyl)phenyl)-3-furamide]
24 nM | O=c1[nH]nc(Cc2cccc(-c3cccc(CNC4CC4)c3)c2)c2c1CCCC2 [Example 130, 4-((3′-((cyclopropylamino)methyl)-1,1′-biphenyl-3-yl)methyl)-5,6,7,8-tetrahydrophthalazin-1(2H)-one]
158 nM | CC(C)(C)c1ccc(C(=O)Nc2cccc(Cc3n[nH]c(=O)c4c3CCCC4)c2)cc1 [Example 233, 4-tert-butyl-N-(3-((4-oxo-3,4,5,6,7,8-hexahydrophthalazin-1-yl)methyl)phenyl)benzamide]
54 nM | O=C(Nc1cc(Cc2n[nH]c(=O)c3c2CCCC3)ccc1F)N[C@@H](Cc1ccccc1)C(=O)O [Example 628, N-[({2-fluoro-5-[(4-oxo-3,4,5,6,7,8-hexahydrophthalazin-1-yl)methyl]phenyl}amino)carbonyl]phenylalanine]
5 nM | O=C(NC1CNC1)c1cccc(Cc2n[nH]c(=O)c3c2CCCC3)c1 [Example 56, N-azetidin-3-yl-3-((4-oxo-3,4,5,6,7,8-hexahydrophthalazin-1-yl)methyl)benzamide]
28 nM | Cc1ccc(CCNC(=O)c2cccc(Cc3n[nH]c(=O)c4c3CCCC4)c2)cc1 [Example 378, N-(2-(4-methylphenyl)ethyl)-3-((4-oxo-3,4,5,6,7,8-hexahydrophthalazin-1-yl)methyl)benzamide]
92 nM | CCCOc1ccc(NC(=O)c2cccc(Cc3n[nH]c(=O)c4c3CCCC4)c2)cc1 [Example 355, 3-((4-oxo-3,4,5,6,7,8-hexahydrophthalazin-1-yl)methyl)-N-(4-propoxyphenyl)benzamide]
52 nM | O=C(Nc1cccc(Cc2n[nH]c(=O)c3c2CCCC3)c1)c1cccc(I)c1 [Example 246, 3-iodo-N-(3-((4-oxo-3,4,5,6,7,8-hexahydrophthalazin-1-yl)methyl)phenyl)benzamide]
638 nM | O=C(c1ccccc1-c1cc(CCc2n[nH]c(=O)c3c2CCCC3)ccc1F)N1CCCC1 [Example 268, 4-(2-(6-fluoro-2′-(pyrrolidin-1-ylcarbonyl)-1,1′-biphenyl-3-yl)ethyl)-5,6,7,8-tetrahydrophthalazin-1(2H)-one]
11 nM | CN(C(=O)c1cc(Cc2n[nH]c(=O)c3c2NCCC3)ccc1F)C1CCN(C(=O)OC(C)(C)C)CC1 [Example 698, tert-butyl 4-[{2-fluoro-5-[(5-oxo-1,2,3,4,5,6-hexahydropyrido[2,3-d]pyridazin-8-yl)methyl]benzoyl}(methyl)amino]piperidine-1-carboxylate]
20 nM | CN1CCN(C(=O)c2cccc(Cc3n[nH]c(=O)c4c3CCCC4)c2)CC1 [Example 435, 4-(3-((4-methylpiperazin-1-yl)carbonyl)benzyl)-5,6,7,8-tetrahydrophthalazin-1(2H)-one]
51 nM | O=C(NCCc1ccccc1)c1cccc(Cc2n[nH]c(=O)c3c2CCCC3)c1 [Example 375, 3-((4-oxo-3,4,5,6,7,8-hexahydrophthalazin-1-yl)methyl)-N-(2-phenylethyl)benzamide]
471 nM | CC(Cc1n[nH]c(=O)c2c1CCCC2)c1ccc(F)c(-c2cccc(C(=O)N3CCOCC3)c2)c1 (stereo not drawn) [Example 275, 4-(2-(6-fluoro-3′-(morpholin-4-ylcarbonyl)-1,1′-biphenyl-3-yl)propyl)-5,6,7,8-tetrahydrophthalazin-1(2H)-one]

Compound | Ki
O=C(CCCC(=O)Nc1cccc(Cc2n[nH]c(=O)c3c2CCCC3)c1)Nc1ccccc1 [Example 172, N-(3-((4-oxo-3,4,5,6,7,8-hexahydrophthalazin-1-yl)methyl)phenyl)-N′-phenylpentanediamide] | 3 nM
O=C(c1cc(Cc2n[nH]c(=O)c3c2CCCC3)ccc1F)N1CCN(c2ccccn2)CC1 [Example 529, 4-{4-fluoro-3-[(4-pyridin-2-ylpiperazin-1-yl)carbonyl]benzyl}-5,6,7,8-tetrahydrophthalazin-1(2H)-one] | 2 nM
